Assay results as given in paper PMC5623053 (Frontiers in Molecular Biosciences, 2017).
“Also recorded” adds a separate entry of the source. Bridges are numbered along the chain shown (N, C = ends).

Legend:
[1] = test system: SH2D2A; settings: 79 SH2 domains, 100 μg peptide in PBST, duplicate spots; not quantitative
[2] = test system: Grb14; settings: 79 SH2 domains, 100 μg peptide in PBST, duplicate spots; not quantitative
Protocol: (§1) The microarray was conducted by the Protein Array and Analysis Core at the MD Anderson Cancer Center (University of Texas, USA) using standard protocols. […] Each SH2 domain was spotted in duplicate.

[3] = test system: Grb2; settings: 79 SH2 domains, 100 μg peptide in PBST, duplicate spots; not quantitative
Protocol: as §1

[4] = test system: Grb10; settings: 79 SH2 domains, 100 μg peptide in PBST, duplicate spots; not quantitative
Protocol: as §1

[5] = test system: SH2 domain of Grb14; settings: SPR; ref Gunzburg et al., 2012; cited from earlier work
[6] = test system: Grb7-SH2 domain; design: method as in 3 sources, one per row (each row's own in cited_ref): ref Ambaye et al., 2011a; Watson et al., 2017 ||| ref Gunzburg et al., 2012 ||| ref Janes et al., 1997; Gunzburg et al., 2012; settings: ref Janes et al., 1997; Gunzburg et al., 2012; cited from earlier work
Source text: Grb7 is a signaling adaptor protein that has been specifically targeted through th ...

[7] = test system: other SH2 domains in the microarray with leucine present at this position; settings: 79 SH2 domains, 100 μg peptide in PBST; SH2 domains other than Grb7 and SH2D2A with leucine at βD6
[8] = biological target: T1, Grb2-SH2 S90R (Homo sapiens, UniProt P62993, S90R); assay: SPR binding of G7-18NATE to immobilized GST-Grb2-SH2 S90R mutant
T1 construct: Grb7-SH2 (residues 415-532) and Grb2-SH2 (residues 58-160) were incorporated into the pGex2T plasmid; made in house; host or cells: E. coli BL21(DE3)pLysS

[9] = test system: SH2 domain of Grb10; settings: SPR; ref Gunzburg et al., 2012; cited from earlier work
[10] = test system: Grb2 / HER3; design: method as in Pero et al., 2002; settings: ref Pero et al., 2002; cited from earlier work
[11] = biological target: T2, Grb2-SH2 WT (Homo sapiens, UniProt P62993); assay: SPR binding of G7-18NATE to immobilized GST-Grb2-SH2 WT
T2 construct: Grb7-SH2 (residues 415-532) and Grb2-SH2 (residues 58-160) were incorporated into the pGex2T plasmid; made in house; host or cells: E. coli BL21(DE3)pLysS

[12] = biological target: T3, Grb2-SH2 wild-type, GST fusion (residues 58-160) (UniProt P62993 58-160); assay: SPR; Biacore T100, CM5 chip; GST-SH2 fusion captured by amine-coupled anti-GST antibody, GST alone on the reference cell; G7-18NATE injected 60 s at 30 μL/min in 150 mM NaPO4, 150 mM NaCl, 1 mM DTT, pH 7.4; equilibrium responses fitted by a single-site binding model; settings: both partners purified
T3 construct: Grb2, SH2 domain, residues 58-160, in pGex2T; also called Grb2-SH2 WT; WT Grb2-SH2

[13] = biological target: T4, Grb7-SH2 R462S, GST fusion (residues 415-532) (UniProt Q14451 415-532, R462S); assay: as above; settings: both partners purified
T4 construct: Made by site-directed mutagenesis of the wild-type construct; primers in Supplementary Material; also called R462S Grb7-SH2; R462S mutant
T4 sequence (Q14451 415-532 R462S): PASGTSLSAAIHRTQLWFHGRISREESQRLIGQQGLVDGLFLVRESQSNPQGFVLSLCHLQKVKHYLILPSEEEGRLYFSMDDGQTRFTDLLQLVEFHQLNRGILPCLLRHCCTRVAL

[14] = biological target: T5, Grb7-SH2 wild-type, GST fusion (residues 415-532) (UniProt Q14451 415-532); assay: as above; settings: both partners purified
T5 construct: also called Grb7-SH2 WT; WT Grb7-SH2
T5 sequence (Q14451 415-532): as the sequence (Q14451 415-532 R462S) above, with S48R counted along it

[15] = biological target: T4, Grb7-SH2 R462S, GST fusion (residues …); assay: as above; settings: both partners purified; remark: listed apart in the source
[16] = SPR, Biacore T100, single-site binding model, errors are standard error of the fits
[17] = in words, injection of G7-18NATE over the chip surface

(cyclo-(CH2CO-WFEGYDNTFPC-RRMKWKKK(Biotin))-amide) (sidechain bridge or staple) [G7-18NATE-PB]
microarray fluorescence / binding [1]: Fluorescence was observed, although at much lower intensity | microarray fluorescence [2]: no observation of fluorescence | microarray fluorescence [3]: no observation of fluorescence | microarray fluorescence [4]: no observation of fluorescence

C[C@@H](O)[C@@H]1NC(=O)[C@H](CC(N)=O)NC(=O)[C@H](CC(=O)O)NC(=O)[C@H](Cc2ccc(O)cc2)NC(=O)CNC(=O)[C@H](CCC(=O)O)NC(=O)[C@H](Cc2ccccc2)NC(=O)[C@H](Cc2c[nH]c3ccccc23)NC(=O)CSC[C@@H](C(N)=O)NC(=O)[C@@H]2CCCN2C(=O)[C@H](Cc2ccccc2)NC1=O [G7-18NATE]
binding to Grb14 SH2 domain [5]: minimal binding | specificity for Grb7-SH2 over Grb2, Grb10 and Grb14 SH2 domains [6]: specific for the Grb7-SH2 domain over the closely related SH2 domains of Grb2, Grb10, and Grb14 | microarray binding [7]: no ability to be bound | microarray fluorescence / binding [1]: detectable binding | Rmax [8, 16]: 41.0 ± 3 RU | SPR binding response [8, 17]: low responses, though slightly higher than seen for Grb2-SH2 WT; also recorded: minimal binding | binding to Grb10 SH2 domain [9]: minimal binding | effect on Grb2/HER3 interaction [10]: no effect | Rmax [11, 16]: 14.2 ± 0.9 RU | SPR binding response [11, 17]: only a low binding response

B1: G7-18NATE (cyclo-(CH2CO-WFEGYDNTFPC)-amide) (peptide)
peptide: {CH2CO}-WFEGYDNTFPC-NH2
modifications: thioether N-11
notes: cyclic peptide developed via phage display against the Grb7-SH2 domain; Purity >95% by LC-MS; source: synthetic peptide (standard Fmoc-chemistry), bought: Purar Chemicals (Australia)
Kd [12]: > 125 µM | Kd [13]: 7.98 µM | Kd [14]: 2.43 µM | Kd [15]: 7.97 µM
